According to patent US5571836A, “Viral attachment inhibitors” (priority 1995, dated 1996):
Structures can show the parent of a compound that is named as a salt.

Tests used:
Settings in all cases: for A^i (absorbance): 492 nm
[1] = test system: influenza virus Taiwan/1/86; assay: Fetuin binding inhibition assay, influenza virus Taiwan/1/86
[2] = test system: influenza virus B/Singapore/222/79; assay: Fetuin binding inhibition assay, influenza virus B/Singapore/222/79
[3] = test system: influenza virus Port Chalmers/1/73; assay: Fetuin binding inhibition assay, influenza virus Port Chalmers/1/73
[4] = test system: influenza virus Victoria/3/75; assay: Fetuin binding inhibition assay, influenza virus Victoria/3/75
[5] = test system: influenza virus USSR/90/77; assay: Fetuin binding inhibition assay, influenza virus USSR/90/77
[6] = test system: influenza virus B/USSR/100/83; assay: Fetuin binding inhibition assay, influenza virus B/USSR/100/83
[7] = test system: influenza virus Chile/1/83; assay: Fetuin binding inhibition assay, influenza virus Chile/1/83

SMILES: CC(=S)NC1C(O)CC(OCc2ccccc2)(C(=O)O)OC1C(O)C(O)CO [IV, benzyl 3,5-dideoxy5-thioacetamido-α-D-glycero-D-galacto-nonulopyranosidonicacid (sodium salt)]
- -lgKd(i) ([1]; 1.28 mM sialoside): 3.2
- A^i (absorbance) ([1]; 1.28 mM sialoside): 0.33
- -lgKd(i) ([1]; 2.56 mM sialoside): 3.2
- A^i (absorbance) ([1]; 2.56 mM sialoside): 0.21
- -lgKd(i) ([1]; .08 mM sialoside): 3.3
- A^i (absorbance) ([1]; .08 mM sialoside): 0.68
- -lgKd(i) ([1]; .16 mM sialoside): 3.3
- A^i (absorbance) ([1]; .16 mM sialoside): 0.62
- -lgKd(i) ([1]; .32 mM sialoside): 3.2
- A^i (absorbance) ([1]; .32 mM sialoside): 0.55
- -lgKd(i) ([1]; .64 mM sialoside): 3.1
- A^i (absorbance) ([1]; .64 mM sialoside): 0.47
- -lgKd ± SD ([1]; mean over concentrations): 3.2 ± 0.08
- -lgKd(i) ([2]; 1.28 mM sialoside): 3.6
- A^i (absorbance) ([2]; 1.28 mM sialoside): 0.18
- -lgKd(i) ([2]; 2.56 mM sialoside): 3.7
- A^i (absorbance) ([2]; 2.56 mM sialoside): 0.09
- -lgKd(i) ([2]; .32 mM sialoside): 3.2
- A^i (absorbance) ([2]; .32 mM sialoside): 0.56
- -lgKd(i) ([2]; .64 mM sialoside): 3.5
- A^i (absorbance) ([2]; .64 mM sialoside): 0.35
- -lgKd ± SD ([2]; mean over concentrations): 3.5 ± 0.2
- -lgKd(i) ([3]; 1.60 mM sialoside): 3.2
- A^i (absorbance) ([3]; 1.60 mM sialoside): 0.25
- -lgKd(i) ([3]; .05 mM sialoside): 3.2
- A^i (absorbance) ([3]; .05 mM sialoside): 0.55
- -lgKd(i) ([3]; .10 mM sialoside): 3.4
- A^i (absorbance) ([3]; .10 mM sialoside): 0.51
- -lgKd(i) ([3]; .20 mM sialoside): 3.4
- A^i (absorbance) ([3]; .20 mM sialoside): 0.47
- -lgKd(i) ([3]; .40 mM sialoside): 3.3
- A^i (absorbance) ([3]; .40 mM sialoside): 0.42
- -lgKd(i) ([3]; .80 mM sialoside): 3.1
- A^i (absorbance) ([3]; .80 mM sialoside): 0.40
- -lgKd ± SD ([3]; mean over concentrations): 3.3 ± 0.1
- -lgKd(i) ([4]; 1.60 mM sialoside): 3.3
- A^i (absorbance) ([4]; 1.60 mM sialoside): 0.35
- -lgKd(i) ([4]; .05 mM sialoside): 3.3
- A^i (absorbance) ([4]; .05 mM sialoside): 0.71
- -lgKd(i) ([4]; .10 mM sialoside): 3.3
- A^i (absorbance) ([4]; .10 mM sialoside): 0.69
- -lgKd(i) ([4]; .20 mM sialoside): 3.5
- A^i (absorbance) ([4]; .20 mM sialoside): 0.61
- -lgKd(i) ([4]; .40 mM sialoside): 3.4
- A^i (absorbance) ([4]; .40 mM sialoside): 0.56
- -lgKd(i) ([4]; .80 mM sialoside): 3.4
- A^i (absorbance) ([4]; .80 mM sialoside): 0.46
- -lgKd ± SD ([4]; mean over concentrations): 3.4 ± 0.08
- -lgKd(i) ([5]; 1.28 mM sialoside): 3.2
- A^i (absorbance) ([5]; 1.28 mM sialoside): 0.41
- -lgKd(i) ([5]; 2.56 mM sialoside): 3.2
- A^i (absorbance) ([5]; 2.56 mM sialoside): 0.23
- -lgKd(i) ([5]; .08 mM sialoside): 3.1
- A^i (absorbance) ([5]; .08 mM sialoside): 0.94
- -lgKd(i) ([5]; .16 mM sialoside): 3.2
- A^i (absorbance) ([5]; .16 mM sialoside): 0.84
- -lgKd(i) ([5]; .32 mM sialoside): 3.2
- A^i (absorbance) ([5]; .32 mM sialoside): 0.73
- -lgKd(i) ([5]; .64 mM sialoside): 3.2
- A^i (absorbance) ([5]; .64 mM sialoside): 0.6
- -lgKd ± SD ([5]; mean over concentrations): 3.1 ± 0.09
- -lgKd(i) ([6]; 1.28 mM sialoside): 3.7
- A^i (absorbance) ([6]; 1.28 mM sialoside): 0.15
- -lgKd(i) ([6]; 2.56 mM sialoside): 3.7
- A^i (absorbance) ([6]; 2.56 mM sialoside): 0.08
- -lgKd(i) ([6]; .16 mM sialoside): 3.3
- A^i (absorbance) ([6]; .16 mM sialoside): 0.52
- -lgKd(i) ([6]; .32 mM sialoside): 3.5
- A^i (absorbance) ([6]; .32 mM sialoside): 0.40
- -lgKd(i) ([6]; .64 mM sialoside): 3.7
- A^i (absorbance) ([6]; .64 mM sialoside): 0.25
- -lgKd ± SD ([6]; mean over concentrations): 3.6 ± 0.2
- -lgKd(i) ([7]; 1.28 mM sialoside): 3.6
- A^i (absorbance) ([7]; 1.28 mM sialoside): 0.36
- -lgKd(i) ([7]; 2.56 mM sialoside): 3.5
- A^i (absorbance) ([7]; 2.56 mM sialoside): 0.25
- -lgKd(i) ([7]; .08 mM sialoside): 3.5
- A^i (absorbance) ([7]; .08 mM sialoside): 1.27
- -lgKd(i) ([7]; .16 mM sialoside): 3.5
- A^i (absorbance) ([7]; .16 mM sialoside): 1.14
- -lgKd(i) ([7]; .32 mM sialoside): 3.5
- A^i (absorbance) ([7]; .32 mM sialoside): 0.89
- -lgKd(i) ([7]; .64 mM sialoside): 3.5
